According to patent US10786475B2, “Method for preventing, treating, or improving fatty liver by administering effective amounts of azelaic acid to a subject” (Korea University Research and Business Foundation, priority 2018, dated 2020):

Legend:
Olfr544 [1] = test: cAMP, calcium and PKA activity in Hepa1c1c-7 cells (Olfr544 activation); type: cell-based, mouse
Protocol: A cAMP assay estimates a production level of cAMP, which is a secondary messenger material of a GPCR receptor activated by a ligand, using a cAMP standard calibration curve. A 96 well-plate included in a cAMP Assay ELISA kit (Enzo Life science, New York, USA) was coated with a GxR IgG antibody, and cAMP in a blue solution for plotting the standard calibration curve, binds with alkaline phosphatase and turns into yellow color by the rabbit antibody. When pNpp substrate is added into the wells bound with cAMP, alkaline phosphatase is activated to cause the color changes, and a cAMP concentration may be measured through colorimetric quantification at a wavelength of 405 nm. In this experiment, Hepa1c1c-7 cells were seeded on a 96-well plate at 1×10^4 cells/well for differentiation, and treated with 50 μM of AzA and 1 μM of Forskolin (FSK), which is a positive control, for 18 hours, and then a cAMP concentration was measured according to the above-described method.

Olfr544 [2] = test: p-CREB/CREB western blotting in Hepa1c1c-7 cells, normal and Olfr544 knockdown; type: cell-based, mouse
Text: To more clearly confirm whether an AzA acts as an Olfr544 ligand, an Olfr544 knockdown cell line was constructed using a vector including shRNA, and protein expression levels of normal cells and knockdown cells were compared by performing an experiment as follows. To construct an Olfr544 knockdown cell line, particularly, an oligonucleotide (top strand [SEQ ID NO: 1]: 5′-[…]-ACAGTGAG-3′) encoding an Olfr544-targeted shRNA hairpin sequence or an oligonucleotide (top strand [SEQ ID NO: 2]: 5′-[…]-3′) encoding non-targeting scrambled shRNA hairpins were inserted into an shRNA cloning site of a pENTR/U6 vector using a BLOCK-iT U6 RNAi entry vector kit (Invitrogen). Subsequently, Hepa1c1c-7 or 3T3-L1 cells were seeded on a 6-well plate and transfected with 2.5 μg of Olfr544 shRNA or scrambled shRNA using 10 μL Lipofectamine 2000 (Invitrogen) for 48 hours, thereby constructing an Olfr544 knockdown cell line. […]
To confirm whether an Olfr544 protein was expressed, protein fractions (cell membrane protein, cytosol protein) and total proteins (whole protein extract), which were extracted by the method of Example 2-3, were quantified by a Bradford method. […] The expression level of each gene was standardized using β-actin or GAPDH expression, and the comparison of the contents of protein bands of western blots was quantified and digitized using software (Gel-Pro Analyzer 4.0). […]

ob/ob mouse = test: Fatty liver inhibitory effect in ob/ob mouse; type: in vivo; settings: 60% high-fat diet, AzA 50 mg/kg oral, 6 weeks
Protocol: A 7-week-old male fatty liver model ob/ob mouse was purchased from Central Laboratory Animal Inc. to be used in an experiment. An AzA was orally administered at 50 mg/kg of body weight along with a 60% high-fat diet (HFD) for 6 weeks. As the experiment progresses, body weight was measured once a week, and food intake was measured […] on the last week. The concentration of triglycerides in liver tissue was measured by homogenizing liver tissue of a mouse in 600 μL of acetone (Daejung, Korea), storing the homogenate at 4° C. for 24 hours, and obtaining a fat part by centrifugation at 12000 rpm for 10 minutes. The fat part was dried, dissolved in 95% ethanol, quantified using a Cobas C11 autoanalyzer (Roche, Basel, Switzerland) and normalized with a liver weight. A fatty acid oxidation rate was measured and analyzed by the method of Example 4-4 described above.

[3] = tested on: Hepa1c1c-7 cells stimulated by LPS; test: IL-6 and TNF-α cytokine concentration (ELISA) in LPS-treated Hepa1c1c-7 cells; type: cell-based, mouse; settings: 50 μM AzA pretreatment 1 hour, 100 ng/mL LPS 6 hours
Protocol: Hepa1c1c-7 cells were cultured in a 12-well plate for 24 hours. Subsequently, the cells were pretreated with 50 μM of AzA for 1 hour, and treated with 100 ng/mL LPS for 6 hours with the AzA present. The Hepa1c1c-7 cells were lysed in a cell lysis buffer (50 mM Tris, 1% Triton-X 100, 1 mM EDTA, proteinase inhibitor), centrifuged at 13,000 rpm and 4° C. for 20 minutes, thereby obtaining a supernatant, and then the supernatant was analyzed using a Mouse IL6 ELISA kit and a Mouse TNFα ELISA kit (Thermo Scientific, IL, USA). Tumor necrosis factor-alpha (TNF-α) and interleukin-6 (IL-6) were quantified using ELISA known to those of ordinary skill in the art.

## O=C(O)CCCCCCCC(=O)O [AzA, nonanedioic acid]
Olfr544 [1]; 50 μM AzA, 18 hours, compared with control group
  cAMP concentration in the cells: significantly increased
Olfr544 [1]; AzA treatment
  PKA activity: significantly increased
Olfr544 [1]; compared with control group
  calcium concentration in the cells: significantly increased
Olfr544 [2]; Hepa1c1c-7 cells with Olfr544 knockdown by shRNA transfection
  increase in p-CREB/CREB ratio: not observed
Olfr544 [2]; Hepa1c1c-7 cells, AzA-treated group
  p-CREB/CREB ratio: significantly increased
ob/ob mouse
  expression of PPARα and a target gene thereof (Hmgcs2) in liver tissue: significantly increased
  triglyceride concentration in liver tissue: reduced
ob/ob mouse; compared with control group
  body weight: decreased
[3]
  expression level of the IL-6 protein: tendency of decrease
